In patent US10947213B1 (Merck Patent GmbH, priority 2015, dated 2021):
Structures can show the parent of a compound that is named as a salt.

Biological target: T1, TLR7/NFKb HEK cells (Homo sapiens, UniProt Q9NYK1)
T1 construct: expressed in transfected cells; host or cells: HEK cells (TLR7/NFKb reporter line)
T1 sequence (Q9NYK1 27-1049): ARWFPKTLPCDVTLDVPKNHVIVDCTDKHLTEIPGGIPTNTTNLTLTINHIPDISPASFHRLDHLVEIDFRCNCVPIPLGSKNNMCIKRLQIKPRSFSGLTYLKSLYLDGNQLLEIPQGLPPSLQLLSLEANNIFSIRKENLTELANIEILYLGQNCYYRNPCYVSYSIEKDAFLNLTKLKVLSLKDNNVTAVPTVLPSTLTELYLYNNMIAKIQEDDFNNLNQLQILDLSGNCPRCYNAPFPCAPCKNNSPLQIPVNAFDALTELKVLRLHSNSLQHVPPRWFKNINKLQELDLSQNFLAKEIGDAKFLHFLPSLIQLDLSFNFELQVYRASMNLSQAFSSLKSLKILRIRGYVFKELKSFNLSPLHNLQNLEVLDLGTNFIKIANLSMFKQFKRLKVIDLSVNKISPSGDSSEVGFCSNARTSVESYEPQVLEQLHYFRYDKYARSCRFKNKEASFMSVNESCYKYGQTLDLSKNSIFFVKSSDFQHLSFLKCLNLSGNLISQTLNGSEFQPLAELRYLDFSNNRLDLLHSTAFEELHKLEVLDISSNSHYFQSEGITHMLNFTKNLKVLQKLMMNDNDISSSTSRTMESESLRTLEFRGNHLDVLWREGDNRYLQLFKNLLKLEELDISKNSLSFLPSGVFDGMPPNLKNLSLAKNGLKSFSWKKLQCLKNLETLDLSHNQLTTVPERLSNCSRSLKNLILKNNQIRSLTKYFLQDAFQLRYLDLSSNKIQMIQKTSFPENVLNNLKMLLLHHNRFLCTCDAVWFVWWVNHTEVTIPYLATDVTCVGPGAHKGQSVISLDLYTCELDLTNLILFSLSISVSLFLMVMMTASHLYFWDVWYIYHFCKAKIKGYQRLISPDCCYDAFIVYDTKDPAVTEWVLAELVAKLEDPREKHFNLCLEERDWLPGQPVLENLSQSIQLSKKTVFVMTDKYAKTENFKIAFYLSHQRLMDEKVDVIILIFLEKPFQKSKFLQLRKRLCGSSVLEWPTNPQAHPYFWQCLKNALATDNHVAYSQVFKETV
Assay: HEK Cell Assay (TLR7/NFKb reporter, Steady-Glo luciferase readout)
Format: cell-based
Details: 30 min compound preincubation, then R*48 agonist for 5 hours, read-out: Potency
How it was run: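 Steady-Glo luminescence after 5 h stimulation with R*48 agonist, following 30 min compound preincubation. Assay run in HEK cells carrying a TLR7/NFKb luciferase reporter, plated at 5000 cells/well and grown 24 h at 37° C (10% CO2) before treatment.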

IC50 [nM] | Structure (SMILES)
< 1000 | CCN(C)CC(=O)NCC1CCN(c2ccc(C#N)c3ncccc23)CC1 [Compound 410, N-[1-(8-Cyano-quinolin-5-yl)-piperidin-4-ylmethyl]-2-(ethyl-methyl-amino)-acetamide]
1000 to 10000 | CN1CCCC1C(=O)NCC1CCN(c2ccnc3nccnc23)CC1 (stereo not drawn) [Compound 411, 1-Methyl-pyrrolidine-2-carboxylic acid (1-pyrido[2,3-b]pyrazin-8-yl-piperidin-4-ylmethyl)-amide]
< 1000 | CC(C)(C)NCC(=O)NCC1CCN(c2ccc(C#N)c3ncccc23)CC1 [Compound 413, 2-tert-Butylamino-N-[1-(8-cyano-quinolin-5-yl)-piperidin-4-ylmethyl]-acetamide]
< 1000 | CN(C)CCNC(=O)C1CCN(c2ccc(C#N)c3ncccc23)CC1 [Compound 415, 1-(8-Cyano-quinolin-5-yl)-piperidine-4-carboxylic Acid (2-dimethylamino-ethyl)-amide]
< 1000 | CCN(C)CCNC(=O)C1CCN(c2ccc(C#N)c3ncccc23)CC1 [Compound 416, 1-(8-Cyano-quinolin-5-yl)-piperidine-4-carboxylic Acid [2-(ethyl-methyl-amino)-ethyl]-amide]
< 1000 | N#Cc1ccc(N2CCC(CNC(=O)CN3CCC3)CC2)c2cccnc12 [Compound 417, 2-Azetidin-1-yl-N-[1-(8-cyano-quinolin-5-yl)-piperidin-4-ylmethyl]-acetamide]
< 1000 | CN1CCCC1C(=O)NCC1CCN(c2ccc(C#N)c3ncccc23)CC1 (stereo not drawn) [Compound 418, 1-Methyl-pyrrolidine-2-carboxylic acid [1-(8-cyano-quinolin-5-yl)-piperidin-4-ylmethyl]-amide]
1000 to 10000 | N#Cc1ccc(N2CCC(C(=O)NCCN3CCOCC3)CC2)c2cccnc12 [Compound 419, 1-(8-Cyano-quinolin-5-yl)-piperidine-4-carboxylic Acid (2-morpholin-4-yl-ethyl)-amide]
< 1000 | N#Cc1ccc(N2CC(N)CC(F)(F)C2)c2cccnc12 (stereo not drawn) [Compound 423, 5-(5-Amino-3,3-difluoro-piperidin-1-yl)-quinoline-8-carbonitrile hydrochloride]
< 1000 | N#Cc1ccc(N2CCC(C(=O)NC3CCN(CC4CC4)C3)CC2)c2cccnc12 (stereo not drawn) [Compound 434, 1-(8-Cyano-quinolin-5-yl)-piperidine-4-carboxylic Acid (1-cyclopropylmethyl-pyrrolidin-3-yl)-amide]
< 1000 | CCN1CCC[C@H]1C(=O)NCC1CCN(c2ccc(C#N)c3ncccc23)CC1 [Compound 435, (S)-1-Ethyl-pyrrolidine-2-carboxylic Acid [1-(8-cyano-quinolin-5-yl)-piperidin-4-ylmethyl]-amide]
< 1000 | CCN(C)CCNC(=O)C1CCN(c2ccc(C(F)(F)F)c3ncccc23)CC1 [Compound 436, 1-(8-Trifluoromethyl-quinolin-5-yl)-piperidine-4-carboxylic acid [2-(ethyl-methyl-amino)-ethyl]-amide]
< 1000 | O=C(NCCN1CCCCC1)C1CCN(c2ccc(C(F)(F)F)c3ncccc23)CC1 [Compound 441, 1-(8-Trifluoromethyl-quinolin-5-yl)-piperidine-4-carboxylic Acid (2-piperidin-1-yl-ethyl)-amide]
< 1000 | CCN(CC)CC(=O)NCC1CCN(c2ccc(C(F)(F)F)c3ncccc23)CC1 [Compound 443, 2-Diethylamino-N-[1-(8-trifluoromethyl-quinolin-5-yl)-piperidin-4-ylmethyl]-acetamide]
< 1000 | C[C@H]1C[C@@H](NC(=O)CN(C)C)CN(c2ccc(C#N)c3ncncc23)C1 [Compound 447, N-[(3R,5S)-1-(8-Cyano-quinazolin-5-yl)-5-methyl-piperidin-3-yl]-2-dimethylamino-acetamide]
1000 to 10000 | O=C(CN1CCCCC1)NCC1CCN(c2ccc(C(F)(F)F)c3ncccc23)CC1 [Compound 448, 2-Piperidin-1-yl-N-[1-(8-trifluoromethyl-quinolin-5-yl)-piperidin-4-ylmethyl]-acetamide]
< 1000 | C[C@H]1C[C@@H](N(C)C(=O)CN(C)C)CN(c2ccc(C(F)(F)F)c3ncccc23)C1 [Compound 452, 2-Dimethylamino-N-methyl-N-[(3R,5S)-5-methyl-1-(8-trifluoromethyl-quinolin-5-yl)-piperidin-3-yl]-acetamide]
< 1000 | CCN(CC)CCNC(=O)N1CCN(c2ccc(C#N)c3nccnc23)CC1 [Compound 453, 4-(8-Cyano-quinoxalin-5-yl)-piperazine-1-carboxylic acid (2-diethylamino-ethyl)-amide]

Further lines, the compound ahead of its results:

Structure (SMILES) | IC50 [nM]
N#Cc1ccc(N2CCC(CNC(=O)CN3CCCCC3)CC2)c2cccnc12 [Compound 409, N-[1-(8-Cyano-quinolin-5-yl)-piperidin-4-ylmethyl]-2-piperidin-1-yl-acetamide] | < 1000
CC(C)(C)OCC(=O)NCC1CCN(c2ccc(C#N)c3ncccc23)CC1 [Compound 412, 2-tert-Butoxy-N-[1-(8-cyano-quinolin-5-yl)-piperidin-4-ylmethyl]-acetamide] | > 10000
CC1CCCC(C)N1CCNC(=O)C1CCN(c2ccc(C#N)c3ncccc23)CC1 (stereo not drawn) [Compound 414, 1-(8-Cyano-quinolin-5-yl)-piperidine-4-carboxylic Acid [2-(2,6-dimethyl-piperidin-1-yl)-ethyl]-amide] | < 1000
CC(CN(C)C)NC(=O)C1CCN(c2ccc(C#N)c3ncccc23)CC1 (stereo not drawn) [Compound 420, 1-(8-Cyano-quinolin-5-yl)-piperidine-4-carboxylic Acid (2-dimethylamino-1-methyl-ethyl)-amide] | < 1000
CN1CCN(CCNC(=O)C2CCN(c3ccc(C#N)c4ncccc34)CC2)CC1 [Compound 421, 1-(8-Cyano-quinolin-5-yl)-piperidine-4-carboxylic Acid [2-(4-methyl-piperazin-1-yl)-ethyl]-amide] | < 1000
N#Cc1ccc(N2CCC(C(=O)NCCN3CCCC3)CC2)c2cccnc12 [Compound 422, 1-(8-Cyano-quinolin-5-yl)-piperidine-4-carboxylic Acid (2-pyrrolidin-1-yl-ethyl)-amide] | < 1000
CN(C)CC(=O)NC1CN(c2ccc(C#N)c3ncccc23)CC(F)(F)C1 (stereo not drawn) [Compound 425, N-[1-(8-Cyano-quinolin-5-yl)-5,5-difluoro-piperidin-3-yl]-2-dimethylamino-acetamide] | < 1000
N#Cc1ccc(N2CCC(C(=O)NCCN3CCC(F)(F)CC3)CC2)c2cccnc12 [Compound 427, 1-(8-Cyano-quinolin-5-yl)-piperidine-4-carboxylic Acid [2-(4,4-difluoro-piperidin-1-yl)-ethyl]-amide] | 1000 to 10000
CCN(CC)CCNC(=O)C1CCN(c2ccc(C#N)c3nccnc23)CC1 [Compound 432, 1-(8-Cyano-quinoxalin-5-yl)-piperidine-4-carboxylic acid (2-diethylamino-ethyl)-amide] | < 1000
CN1CCCC1CNC(=O)C1CCN(c2ccc(C#N)c3ncccc23)CC1 (stereo not drawn) [Compound 433, 1-(8-Cyano-quinolin-5-yl)-piperidine-4-carboxylic Acid (1-methyl-pyrrolidin-2-ylmethyl)-amide] | < 1000
N#Cc1ccc(N2CCC(C(=O)NCCN3CCC3)CC2)c2cccnc12 [Compound 439, 1-(8-Cyano-quinolin-5-yl)-piperidine-4-carboxylic Acid (2-azetidin-1-yl-ethyl)-amide] | < 1000
N#Cc1ccc(N2CCC(C(=O)NCCN3CCCCC3)CC2)c2nccnc12 [Compound 440, 1-(8-Cyano-quinoxalin-5-yl)-piperidine-4-carboxylic Acid (2-piperidin-1-yl-ethyl)-amide] | < 1000
CN1CCCC1CNC(=O)C1CCN(c2ccc(C(F)(F)F)c3ncccc23)CC1 (stereo not drawn) [Compound 442, 1-(8-Trifluoromethyl-quinolin-5-yl)-piperidine-4-carboxylic acid (1-methyl-pyrrolidin-2-ylmethyl)-amide] | < 1000
CCN(CC)CCNC(=O)C1CCN(c2ccc(C(F)(F)F)c3ncccc23)CC1 [Compound 446, 1-(8-Trifluoromethyl-quinolin-5-yl)-piperidine-4-carboxylic Acid (2-diethylamino-ethyl)-amide] | < 1000
CN[C@@H]1C[C@H](C)CN(c2ccc(C(F)(F)F)c3ncccc23)C1 [Compound 451, Methyl-[(3R,5S)-5-methyl-1-(8-trifluoromethyl-quinolin-5-yl)-piperidin-3-yl]-amine hydrochloride] | < 1000
